Assay results reported in patent US20260055114A1, “IMIDAZO[1,2-B]PYRIDAZINE INHIBITORS OF CYCLIN-DEPENDENT KINASES” (H. LEE MOFFITT CANCER CENTER AND RESEARCH INSTITUTE, INC., priority 2022, published 2026).

How the values were obtained:
CDK12 = CDK12 (Homo sapiens, UniProt Q9NYV4); assay: Inhibition of cyclin-dependent kinase 12 (% enzyme activity at 1 uM and IC50); format: biochemical; conditions: for remaining activity at 1 µM: 1 uM compound
MDA-MB-231 cell line = assay: Antiproliferative activity, MDA-MB-231 cell line (GI50); format: cell-based; conditions: Homo sapiens
CCNK = CCNK degradation (DC50, Dmax); format: cell-based; conditions: for Dmax (%): CCNK degradation

Chain of CDK12 (Q9NYV4 whole entry): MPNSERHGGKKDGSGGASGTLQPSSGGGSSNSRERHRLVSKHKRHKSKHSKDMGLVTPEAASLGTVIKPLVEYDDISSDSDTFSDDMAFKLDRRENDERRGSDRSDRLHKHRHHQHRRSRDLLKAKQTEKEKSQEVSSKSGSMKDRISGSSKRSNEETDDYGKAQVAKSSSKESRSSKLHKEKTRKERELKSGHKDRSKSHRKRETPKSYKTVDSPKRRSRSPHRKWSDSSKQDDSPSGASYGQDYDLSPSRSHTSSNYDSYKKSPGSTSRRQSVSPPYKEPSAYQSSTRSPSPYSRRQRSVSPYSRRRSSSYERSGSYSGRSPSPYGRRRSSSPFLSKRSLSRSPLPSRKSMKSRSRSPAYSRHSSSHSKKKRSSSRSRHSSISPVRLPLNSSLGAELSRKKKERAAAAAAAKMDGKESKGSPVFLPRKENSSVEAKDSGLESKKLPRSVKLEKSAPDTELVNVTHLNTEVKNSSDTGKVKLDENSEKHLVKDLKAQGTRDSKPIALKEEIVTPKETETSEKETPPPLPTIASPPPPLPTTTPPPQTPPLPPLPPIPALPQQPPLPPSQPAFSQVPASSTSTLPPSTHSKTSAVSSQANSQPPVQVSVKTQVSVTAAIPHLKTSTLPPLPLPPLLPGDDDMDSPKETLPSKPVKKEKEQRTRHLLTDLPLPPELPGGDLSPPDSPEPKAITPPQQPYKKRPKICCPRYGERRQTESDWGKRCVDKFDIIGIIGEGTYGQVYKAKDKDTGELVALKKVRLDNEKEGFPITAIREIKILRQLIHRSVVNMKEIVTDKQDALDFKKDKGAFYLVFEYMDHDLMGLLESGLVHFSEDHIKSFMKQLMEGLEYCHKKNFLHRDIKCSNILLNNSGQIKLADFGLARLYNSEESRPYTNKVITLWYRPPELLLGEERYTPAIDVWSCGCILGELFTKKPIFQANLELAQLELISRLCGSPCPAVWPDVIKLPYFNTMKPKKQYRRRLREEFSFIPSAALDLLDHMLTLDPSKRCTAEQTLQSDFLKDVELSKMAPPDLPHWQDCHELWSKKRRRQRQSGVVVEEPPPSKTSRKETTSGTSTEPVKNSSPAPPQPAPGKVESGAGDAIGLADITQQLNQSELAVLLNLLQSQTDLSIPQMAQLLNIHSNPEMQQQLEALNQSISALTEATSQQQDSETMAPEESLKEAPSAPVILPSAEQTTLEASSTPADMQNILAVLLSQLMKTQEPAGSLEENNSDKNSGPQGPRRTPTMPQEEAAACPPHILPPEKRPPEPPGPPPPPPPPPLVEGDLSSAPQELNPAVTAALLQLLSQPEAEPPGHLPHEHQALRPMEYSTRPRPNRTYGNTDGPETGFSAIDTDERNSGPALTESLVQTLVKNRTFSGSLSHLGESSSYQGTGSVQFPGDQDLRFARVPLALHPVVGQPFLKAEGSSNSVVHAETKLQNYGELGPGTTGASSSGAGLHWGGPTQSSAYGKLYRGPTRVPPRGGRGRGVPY
Chain of CDK12 (O75909 whole entry partner): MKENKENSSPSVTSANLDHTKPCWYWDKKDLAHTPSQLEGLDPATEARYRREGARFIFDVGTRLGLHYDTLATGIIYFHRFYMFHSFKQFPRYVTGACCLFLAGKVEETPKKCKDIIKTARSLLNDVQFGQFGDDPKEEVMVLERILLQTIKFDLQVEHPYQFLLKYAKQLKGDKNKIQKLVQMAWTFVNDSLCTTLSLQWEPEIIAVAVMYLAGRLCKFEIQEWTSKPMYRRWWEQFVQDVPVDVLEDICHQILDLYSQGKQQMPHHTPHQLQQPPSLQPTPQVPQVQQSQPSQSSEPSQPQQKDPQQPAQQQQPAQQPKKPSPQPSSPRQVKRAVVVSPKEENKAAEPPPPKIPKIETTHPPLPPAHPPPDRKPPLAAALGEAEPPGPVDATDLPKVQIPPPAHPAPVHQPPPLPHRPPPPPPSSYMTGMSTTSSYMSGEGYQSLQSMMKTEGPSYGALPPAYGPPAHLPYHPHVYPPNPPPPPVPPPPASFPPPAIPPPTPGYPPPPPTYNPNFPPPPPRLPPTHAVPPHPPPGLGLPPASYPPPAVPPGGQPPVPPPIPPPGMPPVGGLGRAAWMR

SMILES | IC50 (CDK12) [nM] | GI50 (MDA-MB-231 cell line) [nM] | DC50 (CCNK) [nM] | Dmax (%) (CCNK) | remaining activity at 1 µM (CDK12) [%]
Fc1ccc2[nH]c(CNc3cc(N4CCOCC4)nn4c(-c5cnn(C(F)F)c5)cnc34)nc2c1F [Cmpd 55, N-((4,5-difluoro-1H-benzo[d]imidazol-2-yl)methyl)-3-(1-(difluoromethyl)-1H-pyrazol-4-yl)-6-morpholinoimidazo[1,2-b]pyridazin-8-amine] | 283 | 472 | 70 | 80 | –
Cc1cc(-c2cnc3c(NCc4nc5cc(Cl)c(Cl)cc5[nH]4)cc(N4CCN(C)CC4)nn23)cs1 [Cmpd 87, N-((5,6-dichloro-1H-benzo[d]imidazol-2-yl)methyl)-6-(4-methylpiperazin-1-yl)-3-(5-methylthiophen-3-yl) imidazo[1,2-b]pyridazin-8-amine] | – | 7360 | 10000 | – | 82
CN1CCC(Nc2cc(NCc3nc4cccc(Cl)c4[nH]3)c3ncc(-c4ccsc4)n3n2)CC1 [Cmpd 71, N8-((7-chloro-1H-benzo[d]imidazol-2-yl)methyl)-N6-(1-methylpiperidin-4-yl)-3-(thiophen-3-yl) imidazo[1,2-b]pyridazine-6,8-diamine] | 130 | 71 | 160 | 100 | –
Cc1ccnc2[nH]c(CNc3cc(N4CCOCC4)nn4c(-c5cnn(C)c5)cnc34)nc12 [Cmpd 12, 3-(1-methyl-1H-pyrazol-4-yl)-N-((7-methyl-3H-imidazo[4,5-b]pyridin-2-yl)methyl)-6-morpholinoimidazo[1,2-b]pyridazin-8-amine] | 1000 | 5690 | 2100 | 65 | –
Clc1cc2nc(CNc3cc(N4CCOCC4)nn4c(-c5cnn(C6CC6)c5)cnc34)[nH]c2cc1Cl [Cmpd 30, 3-(1-cyclopropyl-1H-pyrazol-4-yl)-N-((5,6-dichloro-1H-benzo[d]imidazol-2-yl)methyl)-6-morpholinoimidazo[1,2-b]pyridazin-8-amine] | – | 2120 | 3000 | 70 | 83
CN1CCN(c2cc(NCc3nc4cccc(Cl)c4[nH]3)c3ncc(-c4csc(C#N)c4)n3n2)CC1 [Cmpd 81, 4-(8-(((7-chloro-1/-benzo[d]imidazol-2-yl)methyl)amino)-6-(4-methylpiperazin-1-yl)imidazo[1,2-b]pyridazin-3-yl)thiophene-2-carbonitrile] | 647 | 1920 | 300 | 80 | 33
CN1CCN(c2cc(NCc3nc4c(F)c(F)ccc4[nH]3)c3ncc(-c4cnn(C(F)F)c4)n3n2)CC1 [Cmpd 54, N-((4,5-difluoro-1H-benzo[d]imidazol-2-yl)methyl)-3-(1-(difluoromethyl)-1H-pyrazol-4-yl)-6-(4-methylpiperazin-1-yl) imidazo[1,2-b]pyridazin-8-amine] | 175 | 440 | 110 | 85 | –
Cc1ccnc2[nH]c(CNc3cc(N4CCN(C)CC4)nn4c(-c5cnn(C(F)F)c5)cnc34)nc12 [Cmpd 57, 3-(1-(difluoromethyl)-1H-pyrazol-4-yl)-N-((7-methyl-3H-imidazo[4,5-b]pyridin-2-yl)methyl)-6-(4-methylpiperazin-1-yl) imidazo[1,2-b]pyridazin-8-amine] | 54 | 419 | 240 | 65 | –
CN1CCN(c2cc(NCc3nc4cc(Cl)c(Cl)cc4[nH]3)c3ncc(-c4cnn(C(F)F)c4)n3n2)CC1(C)C [Cmpd 49, N-((5,6-dichloro-1H-benzo[d]imidazol-2-yl)methyl)-3-(1-(difluoromethyl)-1H-pyrazol-4-yl)-6-(3,3,4-trimethylpiperazin-1-yl) imidazo[1,2-b]pyridazin-8-amine] | – | 465 | 370 | 95 | –
CN(C)c1cc(NCc2nc3cccc(Cl)c3[nH]2)c2ncc(-c3ccsc3)n2n1 [Cmpd 73, N8-((7-chloro-1H-benzo[d]imidazol-2-yl)methyl)-N6,N6-dimethyl-3-(thiophen-3-yl) imidazo[1,2-b]pyridazine-6,8-diamine] | 1000 | 5000 | – | – | –
